Reference: patent US20260207621A1 (Vividion Therapeutics, Inc., priority 2022, published 2026)

Assays:
Nrf2 = Nrf2 antagonism assay: ARE luciferase reporter in KYSE-70 cells; type: cell-based; settings: positive Imax corresponds to Nrf2 antagonism; for Emax: Homo sapiens, KYSE-70, KYSE-70 cells, read-out: KYSE70 Cellular ARE Luciferase Imax (%)
Excerpt: NRF2 binds to a promoter region, antioxidant response element (ARE), to initiate expression of multiple genes. ARE luciferase reporter assays are used to test whether a ligand can activate or repress the expression of target genes using luciferase as a reporter gene.
KYSE-70 is an esophageal squamous cell carcinoma cell line with a Nrf2 mutation at amino acid position W24C. This mutation lowers the affinity between the E3 ligase that includes KEAP1 and Nrf2, resulting in a state in which the synthesis rate of new Nrf2 is faster than the E3's degradation rate of Nrf2, resulting in a “Nrf2 high” state. In KYSE-70 cells, genes are inserted directly after the ARE that trigger the expression of luciferase. Without a NRF2 antagonist in this modified KYSE70 cell line which has an inherently “NRF2 high state”, luciferase is expressed, and a signal is observed.
Nrf2 antagonists bind at C151 of KEAP1 and stabilize the E3 which results in an increased degradation rate of Nrf2. Increased degradation of Nrf2 results in less expression of luciferase, and therefore a less intense signal.
An IC50 is generated from the dose-response curve and an Imax. A positive Imax corresponds to Nrf2 antagonism. Imax >90% correlates with in vivo tumor grown inhibition. Compounds with Imax >50% were included in this description.

KEAP1 C151 = molecular target: T1, KEAP1 C151 (Homo sapiens, UniProt Q14145); experiment: Nrf2 TMT measurement: in vitro TE50 for KEAP1 C151 (IA-DTB competition, targeted TMT mass spectrometry) in MDA-MB-468 cell lysate; type: binding; settings: in vitro target engagement of KEAP1 C151, targeted TMT, read-out: KEAP1_C151 TE50
T1 construct: treating 500 μg of cell lysate generated from MDA-MB-468 breast cancer cells with DMSO or compound; endogenous in cells; host or cells: MDA-MB-468 breast cancer cell lysate
Protocol: In vitro TE50 values for KEAP_C151 were obtained by treating 500 μg of cell lysate generated from MDA-MB-468 breast cancer cells with DMSO or compound for 1 hour at room temperature followed by the addition of 200 μM IA-DTB (in DMSO) for one hour at room temperature. Samples were then precipitated by the addition of 8× ice cold acetonitrile and incubated at −80° C. for two hours. Protein was then pelleted by centrifugation (4,200 RPM, 45 min, 4° C.). The pelleted material was resuspended in 9M Urea, 50 mM ammonium bicarbonate and proteins were reduced and alkylated by the addition of DTT and iodoacetamide (10 and 30 mM, respectively). Following reduction and alkylation, samples were exchanged into 2M urea (Zeba spin desalting plates, Thermo Fisher) and digested with Trypsin. IA-DTB labeled peptides were isolated with streptavidin agarose resin. Enriched peptides were eluted by the addition of 50% acetonitrile (ACN) 0.1% Formic Acid (FA) and dried in a SpeedVac vacuum concentrator.
Dried peptides were resuspended in 0.2 M EPPS pH 8.5 and treated with 6.5 μL of 11-plex tandem mass tag (TMT) (8.3 μg/μL in dry ACN) for 2 hours at room temperature. Reactions were quenched by the addition of 6.5 μL of 5% Hydroxylamine. Samples were then combined and desalted on a Biotage Evolute express ABN plate (600-0010-PX01).
Targeted TMT. Targeted TMT measurements were collected using an Orbitrap LumosTribrid Mass Spectrometer (Thermo Scientific) coupled to an UltiMate 3000 Series Rapid Separation LC system and autosampler (Thermo Scientific Dionex). Peptides were eluted onto a custom C18 capillary analytical column (75-μm inner diameter fused silica, packed with Acclaim PepMap C18 resin (Thermo Scientific)) using an Acclaim PepMap 100 (Thermo 164535) loading column, and separated at a flow rate of 1.0 μl min−1. Data were acquired using a specific MS3-based TMT method targeting the peptide containing KEAP1 C151 (C(+324.2)[…], +3 charge state) where MS2 peptide fragmentation is triggered upon detection of the peptide precursor ion. Subsequent MS3 analysis was then performed using pre-selected peptide fragment ions that were isolated for fragmentation using synchronous precursor selection. RAW files were converted to MZXML format and searched with the SEQUEST algorithm using the MassPike software package. TMT quantitation was performed with a filter requiring at least ten summed signal-to-noise for control channels. Quantified signals were used for dose response curve-fitting and IC50 calculation using R's drc package.

T1 sequence (Q14145 whole entry): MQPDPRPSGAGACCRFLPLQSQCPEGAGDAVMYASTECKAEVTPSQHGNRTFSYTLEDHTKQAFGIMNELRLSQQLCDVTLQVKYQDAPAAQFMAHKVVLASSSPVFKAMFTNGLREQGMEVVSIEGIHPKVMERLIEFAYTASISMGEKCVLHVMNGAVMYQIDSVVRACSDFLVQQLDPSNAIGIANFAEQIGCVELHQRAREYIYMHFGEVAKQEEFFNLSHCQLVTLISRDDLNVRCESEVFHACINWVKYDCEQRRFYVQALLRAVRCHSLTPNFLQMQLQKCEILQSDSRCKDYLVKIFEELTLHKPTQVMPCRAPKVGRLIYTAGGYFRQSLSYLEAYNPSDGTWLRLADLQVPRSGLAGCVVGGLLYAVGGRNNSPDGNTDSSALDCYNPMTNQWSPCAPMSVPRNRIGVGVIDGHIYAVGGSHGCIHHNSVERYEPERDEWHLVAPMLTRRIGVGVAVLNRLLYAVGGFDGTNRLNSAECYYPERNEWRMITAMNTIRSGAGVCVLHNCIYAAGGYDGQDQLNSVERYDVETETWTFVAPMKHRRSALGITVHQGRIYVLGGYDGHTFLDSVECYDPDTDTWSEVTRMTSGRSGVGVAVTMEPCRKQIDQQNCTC

Row | SMILES | Emax (Nrf2) [%] | IC50 (KEAP1 C151) [nM] | KYSE70 Cellular ARE Luciferase Imax (%) (Nrf2; KYSE-70 cells)
1 | C=CC(=O)N1CCN(C(C)=O)C[C@H]1c1cc(Cl)cc(-c2nccc(N)n2)c1 (single isomer, unassigned) [Compound 183] | 87 | 27 | 
2 | C=CC(=O)N1CCOCC1c1cc(Cl)nc(-c2cc(C#N)ncn2)c1 (single isomer, unassigned) [Compound 129, 6-(4-(4-acryloylmorpholin-3-yl)-6-chloropyridin-2-yl)pyrimidine-4-carbonitrile] | 84 | 79 | 
3 | C=CC(=O)N1CCOC[C@H]1c1cc(Cl)cc(-c2cc3[nH]ccc3cn2)c1 (single isomer, unassigned) [Compound 296] | 96 | 36 | 
4 | C=CC(=O)N1CCOCC1c1cc(C#N)cc(-c2ccc(F)c(C(N)=O)c2)c1 (single isomer, unassigned) [Compound 67, 3′-(4-acryloylmorpholin-3-yl)-5′-cyano-4-fluoro-[1,1′-biphenyl]-3-carboxamide] | 73 | 19 | 
5 | C=CC(=O)N1CCOC[C@H]1c1cc(Cl)cc(-c2cc(N)nc(F)n2)c1 (single isomer, unassigned) [Compound 283] | 94 | 18 | 
6 | C=CC(=O)N1CC2(CCCC2)OCC1(C)c1cc(Cl)cc(-c2ccnc(N)n2)c1 (single isomer, unassigned) [Compound 163, 1-(8-(3-(2-aminopyrimidin-4-yl)-5-chlorophenyl)-8-methyl-6-oxa-9-azaspiro[4.5]decan-9-yl)prop-2-en-1-one] | 72 | 610 | 
7 | C=CC(=O)N1CCN(C(C)=O)C[C@H]1c1cc(Cl)cc(-c2ncnc(N)n2)c1 (single isomer, unassigned) [Compound 74] | 89 | 22 | 
8 | C=CC(=O)N1CCOCC1c1cc(Cl)nc(-c2cc[nH]c(=O)c2)c1 (single isomer, unassigned) [Compound 33, 4-(4-acryloylmorpholin-3-yl)-6-chloro-[2,4′-bipyridin]-2′(1′H)-one] | 82 | 120 | 
9 | C=CC(=O)N1CCOC[C@H]1c1cc(Cl)cc(-c2cnc(=O)n(C)c2)c1 (single isomer, unassigned) [Compound 213] | 75 | 470 | 
10 | C=CC(=O)N1CCOCC1c1cc(Cl)cc(-c2cc(C(N)=O)ccc2F)c1 (single isomer, unassigned) [Compound 60, 3′-(4-acryloylmorpholin-3-yl)-5′-chloro-6-fluoro-[1,1′-biphenyl]-3-carboxamide] | 70 | 58 | 
11 | C=CC(=O)N1CCN(C(C)=O)C[C@H]1c1cc(Cl)cc(-c2ccc(F)c(C(N)=O)c2)c1 (single isomer, unassigned) [Compound 79] | 85 | 18 | 
12 | C=CC(=O)N1CC2(CC2)N(C(=O)C2CC2)CC1c1cc(Cl)cc(-c2ncc(N)cn2)c1 (single isomer, unassigned) [Compound 267] | 94 | 10 | 
13 | C=CC(=O)N1CCOCC1c1cc(Cl)cc(C2CCOCC2)c1 (single isomer, unassigned) [Compound 5, 1-(3-(3-chloro-5-(tetrahydro-2H-pyran-4-yl)phenyl)morpholino)prop-2-en-1-one] | 70 | 130 | 
14 | C=CC(=O)N1CCOCC12COc1c(-c3ccc(F)c(C(N)=O)c3)cc(Cl)cc12 (single isomer, unassigned) [Compound 143, 5-(4′-acryloyl-5-chloro-2H-spiro[benzofuran-3,3′-morpholin]-7-yl)-2-fluorobenzamide] | 56 | 770 | 
15 | C=CC(=O)N1[C@H](CC#N)COC[C@H]1c1cc(Cl)cc(-c2cc(N)ncn2)c1 (single isomer, unassigned) [Compound 204] | 86 | 11 | 
16 | C=CC(=O)N1[C@H](C)COC[C@H]1c1cc(Cl)nc(-c2ccnc(N)n2)c1 (single isomer, unassigned) [Compound 144] | 86 | 83 | 
17 | C=CC(=O)N1[C@H](c2cc(Cl)nc(-c3ccnc(N)n3)c2)COC[C@H]1C(F)F (single isomer, unassigned) [Compound 203] | 87 | 11 | 
18 | C=CC(=O)N1CC[C@](C)(O)C[C@H]1c1cc(Cl)cc(-c2ncc(N)cn2)c1 (single isomer, unassigned) [Compound 265] | 51 | 11200 | 
19 | C=CC(=O)N1CCOCC1c1cc(Cl)cc(-c2cnn(C)c(=O)c2)c1 (single isomer, unassigned) [Compound 53, 5-(3-(4-acryloylmorpholin-3-y1)-5-chlorophenyl)-2-methylpyridazin-3(2H)-one] | 55 | 66 | 
20 | C=CC(=O)N1CCOC[C@H]1c1cc(Cl)cc(C2CNC(=O)NC2)c1 (single isomer, unassigned) [Compound 222] | 85 | 330 | 
21 | C=CC(=O)N1CC(C)(C)OC[C@H]1c1cc(Cl)cc(-c2ncc(N)cn2)c1 (single isomer, unassigned) [Compound 156] | 94 | 105 | 
22 | C=CC(=O)N1CCS(=O)(=O)CC1c1cc(Cl)cc(C2CCOCC2)c1 (racemic) [Compound 28, 1-(3-(3-chloro-5-(tetrahydro-2H-pyran-4-yl)phenyl)-1,1-dioxidothiomorpholino)prop-2-en-1-one] | 50 | 150 | 
23 | C=CC(=O)N1CC2(CC2)OCC1(C)c1cc(Cl)cc(-c2ncc(F)cn2)c1 (single isomer, unassigned) [Compound 165, 1-(6-(3-chloro-5-(5-fluoropyrimidin-2-yl)phenyl)-6-methyl-4-oxa-7-azaspiro[2.5]octan-7-yl)prop-2-en-1-one] | 53 | 330 | 
24 | C=CC(=O)N1[C@H](CO)COC[C@H]1c1cc(Cl)nc(-c2ccn3ccnc3c2)c1 (single isomer, unassigned) [Compound 157] | 81 | 12 | 
25 | C=CC(=O)N1CCOC[C@H]1c1cc(Cl)cc(C2CNC(=O)N(C)C2)c1 (single isomer, unassigned) [Compound 217] |  | 30 | 78
26 | C=CC(=O)N1CCOC[C@H]1c1cc(Cl)cc(-c2nc(C)cc(N)n2)c1 (single isomer, unassigned) [Compound 95] | 94 | 25 | 
27 | C=CC(=O)N1CCCCC1c1cc(Cl)cc(-c2ncc(N)cn2)c1 (single isomer, unassigned) [Compound 239, 1-(2-(3-(5-aminopyrimidin-2-yl)-5-chlorophenyl)piperidin-1-yl)prop-2-en-1-one] | 83 | 220 | 
28 | C=CC(=O)N1CCOC[C@H]1c1cc(Cl)cc(-c2ncccn2)c1 (single isomer, unassigned) [Compound 10] | 79 | 22.8 | 
29 | C=CC(=O)N1CC2(CC2)S(=O)(=O)CC1c1cc(Cl)cc(-c2nccc(N)n2)c1 (single isomer, unassigned) [Compound 249, 1-(6-(3-(4-aminopyrimidin-2-yl)-5-chlorophenyl)-4,4-dioxido-4-thin-7-azaspiro[2.5]octan-7-yl)prop-2-en-1-one] | 89 | 5.3 | 
30 | C=CC(=O)N1CCOCC1c1cc(Cl)cc(-c2cc(C(N)=O)n3ccnc3c2)c1 (single isomer, unassigned) [Compound 85, 7-(3-(4-acryloylmorpholin-3-yl)-5-chlorophenyl)imidazo[1,2-a]pyridine-5-carboxamide] | 89 | 36 | 
